We go through 7 molecules from patent US6838439B2, “Heterocytes as inhibitors of leucocyte adhesion and as VLA-4 antagonists” (Aventis Pharma Deutschland GmbH, priority 1996, dated 2005).

This experiment deals with T1, interaction between VCAM-1 and VLA-4 (VLA-4 on human U937 cells / hVCAM-1(1-3)-IgG) (Homo sapiens, UniProt P05556+P13612).
T1 construct: offered in their natural form as surface molecules on human U937 cells; host or cells: U937 cells carry the endogenous VLA-4; The partner hVCAM-1(1-3)-IgG was made in house in transfected COS cells (ATCC CRL1651) and used as culture supernatant
T1 sequence (P13612 34-1032): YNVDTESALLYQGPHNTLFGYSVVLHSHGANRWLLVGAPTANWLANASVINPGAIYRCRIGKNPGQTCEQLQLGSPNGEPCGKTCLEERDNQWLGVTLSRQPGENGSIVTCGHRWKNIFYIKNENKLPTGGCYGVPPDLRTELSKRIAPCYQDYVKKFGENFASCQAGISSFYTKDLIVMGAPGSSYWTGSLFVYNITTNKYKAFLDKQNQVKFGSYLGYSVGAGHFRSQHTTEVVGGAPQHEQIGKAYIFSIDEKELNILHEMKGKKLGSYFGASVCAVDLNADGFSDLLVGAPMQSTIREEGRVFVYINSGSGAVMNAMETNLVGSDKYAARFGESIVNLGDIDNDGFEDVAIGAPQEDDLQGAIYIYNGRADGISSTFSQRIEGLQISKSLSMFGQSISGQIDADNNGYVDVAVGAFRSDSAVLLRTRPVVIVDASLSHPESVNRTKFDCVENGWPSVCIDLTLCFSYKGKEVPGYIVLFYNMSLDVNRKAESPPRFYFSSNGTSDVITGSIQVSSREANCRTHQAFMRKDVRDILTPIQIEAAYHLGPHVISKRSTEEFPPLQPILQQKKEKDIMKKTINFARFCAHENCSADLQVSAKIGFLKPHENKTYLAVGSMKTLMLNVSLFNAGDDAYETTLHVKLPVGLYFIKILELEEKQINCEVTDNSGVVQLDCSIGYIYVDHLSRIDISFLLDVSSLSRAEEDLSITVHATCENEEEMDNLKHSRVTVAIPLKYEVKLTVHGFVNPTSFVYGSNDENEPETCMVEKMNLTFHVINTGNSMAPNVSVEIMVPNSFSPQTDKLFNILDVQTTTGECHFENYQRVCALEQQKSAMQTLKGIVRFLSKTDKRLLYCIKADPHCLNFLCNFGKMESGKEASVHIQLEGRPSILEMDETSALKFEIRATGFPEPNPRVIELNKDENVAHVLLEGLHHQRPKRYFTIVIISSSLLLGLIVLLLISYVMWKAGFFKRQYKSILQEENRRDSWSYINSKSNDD
T1 sequence (P05556 21-798): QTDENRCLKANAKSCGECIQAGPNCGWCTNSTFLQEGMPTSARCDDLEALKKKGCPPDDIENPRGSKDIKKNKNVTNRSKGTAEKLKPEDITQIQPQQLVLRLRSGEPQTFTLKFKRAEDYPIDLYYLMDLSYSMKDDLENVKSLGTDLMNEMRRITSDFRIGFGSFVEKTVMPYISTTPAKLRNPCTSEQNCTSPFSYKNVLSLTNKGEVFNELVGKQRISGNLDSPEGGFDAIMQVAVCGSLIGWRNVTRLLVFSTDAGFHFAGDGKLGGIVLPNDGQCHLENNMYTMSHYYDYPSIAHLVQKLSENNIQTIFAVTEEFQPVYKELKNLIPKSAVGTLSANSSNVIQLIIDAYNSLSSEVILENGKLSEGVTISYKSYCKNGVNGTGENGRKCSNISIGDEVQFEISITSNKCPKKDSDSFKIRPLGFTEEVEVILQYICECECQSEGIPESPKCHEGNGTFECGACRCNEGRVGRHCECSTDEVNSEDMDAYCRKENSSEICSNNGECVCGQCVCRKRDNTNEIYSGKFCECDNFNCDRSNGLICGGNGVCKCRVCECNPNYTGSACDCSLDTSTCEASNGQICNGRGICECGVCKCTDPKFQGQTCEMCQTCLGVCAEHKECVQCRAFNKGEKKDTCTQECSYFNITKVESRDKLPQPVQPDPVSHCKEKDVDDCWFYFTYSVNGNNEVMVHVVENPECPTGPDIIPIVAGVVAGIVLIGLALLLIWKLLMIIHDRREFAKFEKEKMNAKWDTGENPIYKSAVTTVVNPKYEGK
Nature of the experiment: U937/VCAM-1 cell adhesion test: adhesion of U937 cells to hVCAM-1(1-3)-IgG. The following applies: inhibition of adhesion of U937 cells (ATCC CRL 1593) to hVCAM-1(1-3)-IgG. It counts as cell-based. The source says:
As a test method for the activity of the compounds of the formula Ib on the interaction between VCAM-1 and VLA-4, an assay is used which is specific for this interaction. The cellular binding components, i.e. the VLA-4-integrins, are offered in their natural form as surface molecules on human U937 cells (ATCC CRL 1593), which belong to the group of leucocytes. As specific binding components, recombinant soluble fusion proteins prepared by genetic engineering and consisting of the extracytoplasmic domains of human VCAM-1 and the constant region of a human immunoglobulin of the subclass IgG1 are used.
Assay for the measurement of the adhesion of U937 cells (ATCC CRL 1593) to hVCAM-1(1-3)-IgG
1. Preparation of human VCAM-1(1-3)-IgG and human CD4-IgG
A genetic construct for the expression of the extracellular domains of human VCAM-1 was employed, associated with the genetic sequence of the heavy chain of human immunoglobulin IgG-1 (hinge, CH2 and CH3 regions), from Dr. Brian Seed, Massachusetts General Hospital, Boston, USA. The soluble fusion protein hVCAM-1(1-3)-IgG contained the three amino-terminal extracellular immunoglobulin-like domains of human VCAM-1 (Damle and Aruffo, Proc. Natl. Acad. Sci. USA 1991, 88, 6403). CD4-IgG (Zettlmeissl et al., DNA and Cell Biology 1990, 9, 347) served as a fusion protein for negative controls. The recombinant proteins were expressed as soluble proteins after DEAE/dextran-mediated DNA-transfection in COS cells (ATCC CRL1651) according to standard procedures (Ausubel et al., Current protocols in molecular biology, John Wiley & Sons, Inc., 1994).
2. Assay for measurement of the adhesion of U937 cells to hVCAM-1(1-3)-IgG
2.1 96-well microtiter test plates (Nunc Maxisorb) were incubated at room temperature for 1 hour with 100 μl/well of a goat-anti-human IgG antibody solution (10 μg/ml in 50 mM Tris, pH 9.5). After removing the antibody solution, washing was carried out once with PBS.
2.2 150 μl/well of a blocking buffer (1% BSA in PBS) was incubated on the plates at room temperature for 0.5 hours. After removing the blocking buffer, washing was carried out once with PBS.
2.3 100 μl per well of a cell culture supernatant of transfected COS cells were incubated on the plates at room temperature for 1.5 hours. The COS cells were transfected with a plasmid which codes for the three N-terminal immunoglobulin-like domains of VCAM-1, coupled to the Fc part of human IgG1 (hVCAM-1(1-3)-IgG). The content of hVCAM-1(1-3)-IgG was about 0.5-1 μg/ml. After removing the culture supernatant, washing was carried out once with PBS.
2.4 The plates were incubated at room temperature for 20 minutes with 100 μl/well of Fc receptor blocking buffer (1 mg/ml of γ-globulin, 100 mM NaCl, 100 μM MgCl2, 100 μM MnCl2, 100 μM CaCl2, 1 mg/ml BSA in 50 mM HEPES, pH 7.5). After removing the Fc receptor blocking buffer, washing was carried out once with PBS.
2.5 20 μl of binding buffer (100 μM NaCl, 100 μM MgCl2, 100 μM MnCl2, 100 μM CaCl2, 1 mg/ml BSA in 50 mM HEPES, pH 7.5), were initially introduced, the substances to be tested were added in 10 μl of binding buffer and the mixture was incubated for 20 minutes. As controls, antibodies against VCAM-1 (BBT, No. BBA6) and against VLA-4 (Immunotech, No. 0764) were used.
2.6 U937 cells were incubated in Fc receptor blocking buffer for 20 minutes and then pipetted in at a concentration of 1×10^6/ml and in an amount of 100 μl per well ([…]).
2.7 The plates were slowly immersed at an angle of 45° in stop buffer (100 mM NaCl, 100 μM MgCl2, 100 μM MnCl2, 100 μM CaCl2 in 25 mM Tris, pH 7.5) and shaken off. The process was repeated.
2.8 50 μl/well of a dye solution (16.7 μg/ml of Hoechst dye 33258, 4% formaldehyde, 0.5% Triton X-100 in PBS) were then incubated on the plates for 15 minutes.
2.9 The plates were shaken off and slowly immersed at an angle of 45° in stop buffer (100 mM NaCl, 100 μM MgCl2, 100 μM MnCl2, 100 μM CaCl2 in 25 mM tris, pH 7.5). The process was repeated. […]
By IC50 is commonly meant the midpoint of a concentration-inhibition curve. Take `CC1(c2ccc(CNC(=O)Nc3ccccc3)cc2)C(=O)N(CC(=O)N[C@@H](CC(=O)O)C(=O)N[C@H](C(=O)O)c2ccccc2)C(=O)N1Cc1ccccc1` (mixture of isomers) [Example 5, ((RS)-3-Benzyl-4-methyl-4-(4-(3-phenylureidomethyl)phenyl)-2,5-dioxoimidazolidin-1-yl)acetyl-L-aspartyl-L-phenylglycine]: 9 µM corresponded to half-maximal inhibition (IC50).

In turn, `CC1(c2ccc(C#N)cc2)C(=O)N(CC(=O)N[C@@H](CC(=O)O)C(=O)N[C@H](C(=O)O)c2ccccc2)C(=O)N1Cc1ccc2ccccc2c1` (stereo partly shown) [Example 1] displayed a 50% inhibitory concentration (IC50) of 30 µM.

For `CC1(c2ccc([N+](=O)[O-])cc2)C(=O)N(CC(=O)N[C@@H](CC(=O)O)C(=O)N[C@H](C(=O)O)c2ccccc2)C(=O)N1Cc1ccccc1` (stereo partly drawn) [Example 2, ((R,S)-3 -Benzyl-4-methyl-4-(4-nitrophenyl)-2,5-dioxoimidazolidin-1-yl)acetyl-L-aspartyl-L-phenylglycine], 27.7 µM corresponded to half-maximal inhibition (IC50).

`Cc1ccccc1NC(=O)Nc1ccc(C2(C)C(=O)N(CC(=O)N[C@@H](CC(=O)O)C(=O)N[C@H](C(=O)O)c3ccccc3)C(=O)N2Cc2ccccc2)cc1` (stereo partly drawn) [Example 3, ((R,S)-3-Benzyl-4-methyl-4-(4-(3-(2-methylphenyl)ureido)phenyl)-2,5-dioxoimidazolidin-1-yl)acetyl-L-aspartyl-L-phenylglycine] displayed a concentration for half-maximal inhibition (IC50) of 2.8 µM.

In turn, `CC1(c2ccc(CNC(=O)NCc3ccccc3)cc2)C(=O)N(CC(=O)N[C@@H](CC(=O)O)C(=O)N[C@H](C(=O)O)c2ccccc2)C(=O)N1Cc1ccccc1` (stereo partly drawn) [Example 4, ((R,S)-3-Benzyl-4-(4-(3-benzylureidomethyl)phenyl)-4-methyl-2,5-dioxoimidazolidin-1-yl)acetyl-L-aspartyl-L-phenylglycine] displayed a 50% inhibitory concentration (IC50) of 14 µM.

Turning to `Cc1ccccc1NC(=O)NCc1ccc(C2(C)C(=O)N(CC(=O)N[C@@H](CC(=O)O)C(=O)N[C@H](C(=O)O)c3ccccc3)C(=O)N2Cc2ccccc2)cc1` (stereo partly drawn) [Example 6, ((R,S)-3 -Benzyl-4-methyl-4-(4-(3-(2-methylphenyl)ureidomethyl)phenyl)-2,5-dioxoimidazolidin-1-yl)acetyl-L-aspartyl-L-phenylglycine], the half-maximal inhibitory concentration (IC50) was 6.5 µM.

Turning to `CC1(c2ccc(CNC(=O)NCCc3ccccc3)cc2)C(=O)N(CC(=O)N[C@@H](CC(=O)O)C(=O)N[C@H](C(=O)O)c2ccccc2)C(=O)N1Cc1ccccc1` (stereo partly drawn) [Example 7, ((R,S)-3-Benzyl-4-methyl-4-(4-(3-(2-phenylethyl)ureidomethyl)phenyl)-2,5-dioxoimidazolidin-1-yl)acetyl-L-aspartyl-L-phenylglycine], the IC50 was found to be 20 µM.
